Test results reported in ChEMBL document CHEMBL3734730, “Discovery of novel 2-benzylisoquinolin-1(2H)-ones as potent vasodilative agents” (Bioorg Med Chem Lett, 2015).
Calls of active or inactive are those of the source. The rule behind the calls is not given here.

What was measured:
[1] = Vasodilative activity in isolated Sprague-Dawley rat Superior mesenteric arterial ring assessed as reduction in KCl-induced contraction by wire myograph method relative to control; assay type: functional
[2] = Vasodilative activity in isolated Sprague-Dawley rat Superior mesenteric arterial ring assessed as reduction in KCl-induced contraction at 10^-5 by wire myograph method; assay type: functional; parameters: scale not given: the % may be the effect or the level left
[3] = Vasodilative activity in isolated Sprague-Dawley rat mesenteric arterial ring assessed as reduction in phenylephrine-induced contraction at 10 uM pretreated for 30 mins followed by addition of 10^-8 to 10^-4 M phenylephrine by wire myograph method relative to control; assay type: functional; settings: Mesenteric artery
Rattus norvegicus [4] = experiment: Antihypertensive activity in SHR rat assessed as reduced systolic pressure at 1 mg/kg, po after 2 hrs by tail-cuff plethysmography (reference value: 2 mmHg); assay type: functional, Blood
Rattus norvegicus [5] = experiment: Antihypertensive activity in SHR rat assessed as reduced systolic pressure at 2 mg/kg, po after 2 hrs by tail-cuff plethysmography (reference value: 2 mmHg); assay type: functional, Blood
Rattus norvegicus [6] = experiment: Antihypertensive activity in SHR rat assessed as reduced systolic pressure at 4 mg/kg, po after 2 hrs by tail-cuff plethysmography (reference value: 2 mmHg); assay type: functional, Blood
Rattus norvegicus [7] = experiment: Antihypertensive activity in SHR rat assessed as reduced systolic pressure at 8 mg/kg, po after 2 hrs by tail-cuff plethysmography (reference value: 2 mmHg); assay type: functional, Blood
Rattus norvegicus [8] = experiment: Antihypertensive activity in SHR rat assessed as reduced diastolic pressure at 1 mg/kg, po after 2 hrs by tail-cuff plethysmography (reference value: 2 mmHg); assay type: functional, Blood
Rattus norvegicus [9] = experiment: Antihypertensive activity in SHR rat assessed as reduced diastolic pressure at 2 mg/kg, po after 2 hrs by tail-cuff plethysmography (reference value: 2 mmHg); assay type: functional, Blood
Rattus norvegicus [10] = experiment: Antihypertensive activity in SHR rat assessed as reduced diastolic pressure at 4 mg/kg, po after 2 hrs by tail-cuff plethysmography (reference value: 2 mmHg); assay type: functional, Blood
Rattus norvegicus [11] = experiment: Antihypertensive activity in SHR rat assessed as reduced diastolic pressure at 8 mg/kg, po after 2 hrs by tail-cuff plethysmography (reference value: 2 mmHg); assay type: functional, Blood
Rattus norvegicus [12] = experiment: Antihypertensive activity in po-dosed SHR rat assessed as reduced diastolic pressure after 2 hrs by tail-cuff plethysmography; assay type: functional, organism-based; settings: Blood
Rattus norvegicus [13] = experiment: Antihypertensive activity in po-dosed SHR rat assessed as reduced systolic pressure after 2 hrs by tail-cuff plethysmography; assay type: functional, organism-based; settings: Blood
[14] = Vasodilative activity in isolated Sprague-Dawley rat second-order mesenteric arterial ring assessed as reduction in KCl-induced contraction by wire myograph method relative to control; assay type: functional; settings: Mesenteric artery
[15] = Vasodilative activity in isolated Sprague-Dawley rat third-order mesenteric arterial ring assessed as reduction in KCl-induced contraction by wire myograph method relative to control; assay type: functional; settings: Mesenteric artery
[16] = Vasodilative activity in isolated Sprague-Dawley rat renal arterial ring assessed as reduction in KCl-induced contraction by wire myograph method relative to control; assay type: functional; settings: Renal artery
[17] = Vasodilative activity in isolated Sprague-Dawley rat cerebral basilar arterial ring assessed as reduction in KCl-induced contraction by wire myograph method relative to control; assay type: functional; settings: Basilar artery
[18] = Vasodilative activity in isolated Sprague-Dawley rat coronary artery assessed as reduction in KCl-induced contraction by wire myograph method relative to control; assay type: functional, tissue-based
Rattus norvegicus [19] = experiment: Antihypertensive activity in SHR rat assessed as reduced systolic pressure at 4 mg/kg, po after 0.5 hrs by tail-cuff plethysmography; assay type: functional
Rattus norvegicus [20] = experiment: Antihypertensive activity in SHR rat assessed as reduced systolic pressure at 4 mg/kg, po after 1 hr by tail-cuff plethysmography; assay type: functional, Blood
Rattus norvegicus [21] = experiment: Antihypertensive activity in SHR rat assessed as reduced systolic pressure at 4 mg/kg, po after 5 hrs by tail-cuff plethysmography; assay type: functional, Blood
Rattus norvegicus [22] = experiment: Antihypertensive activity in SHR rat assessed as reduced diastolic pressure at 4 mg/kg, po after 0.5 hrs by tail-cuff plethysmography; assay type: functional, Blood
Rattus norvegicus [23] = experiment: Antihypertensive activity in SHR rat assessed as reduced diastolic pressure at 4 mg/kg, po after 1 hr by tail-cuff plethysmography; assay type: functional
Rattus norvegicus [24] = experiment: Antihypertensive activity in SHR rat assessed as reduced diastolic pressure at 4 mg/kg, po after 4 hrs by tail-cuff plethysmography; assay type: functional

**Q.** Which EC50 [1] does the source give for `COc1cc(Cn2ccc3cccc(OC)c3c2=O)cc(OC)c1OC` here?
**A.** 0.251 µM

**Q.** What about the Rmax [1] of the same compound?
**A.** 98.7%

**Q.** What about the Activity [2] of the same compound?
**A.** 93.8%

**Q.** What about the inhibition [3] of the same compound?
**A.** Active

**Q.** And the Activity (Rattus norvegicus [4])?
**A.** 3 mmHg

**Q.** What about the Activity (Rattus norvegicus [5]) of the same compound?
**A.** 15 mmHg

**Q.** What about the Activity (Rattus norvegicus [6]) of the same compound?
**A.** 34 mmHg

**Q.** What about the Activity (Rattus norvegicus [7]) of the same compound?
**A.** 44 mmHg

**Q.** And the Activity (Rattus norvegicus [8])?
**A.** 1 mmHg

**Q.** And the Activity (Rattus norvegicus [9])?
**A.** 12 mmHg

**Q.** What about the Activity (Rattus norvegicus [10]) of the same compound?
**A.** 39 mmHg

**Q.** And the Activity (Rattus norvegicus [11])?
**A.** 49 mmHg

**Q.** And the inhibition (Rattus norvegicus [12])?
**A.** Dose-dependent effect

**Q.** And the inhibition (Rattus norvegicus [13])?
**A.** Dose-dependent effect

**Q.** With `COc1cc2ccn(Cc3ccc(F)cc3)c(=O)c2cc1OC` as the compound, how does the Activity [2] read?
**A.** 35.2%

**Q.** For `O=C(O)c1cccc(Cn2ccc3cc4c(cc3c2=O)OCO4)c1`, which Activity [2] is on record?
**A.** 34.2%

**Q.** What does the source list for `COc1ccc2c(=O)n(Cc3ccc(OCc4ccc(F)cc4)c(OC)c3)ccc2c1`?
**A.** EC50 [1]: 0.398 µM; Rmax [1]: 94.3%; Activity [2]: 82.4%

**Q.** With `O=c1c2cc(O)ccc2ccn1Cc1ccccc1` as the compound, how does the EC50 [1] read?
**A.** 25.1 µM

**Q.** And the Rmax [1]?
**A.** 60.6%

**Q.** What about the Activity [2] of the same compound?
**A.** 48.5%

**Q.** Which EC50 [1] does the source give for `COc1ccc(Cn2ccc3cc(OC)ccc3c2=O)cc1` here?
**A.** 0.794 µM

**Q.** What about the Rmax [1] of the same compound?
**A.** 90.8%

**Q.** What about the Activity [2] of the same compound?
**A.** 83.7%

**Q.** Which Activity [2] does the source give for `COc1cc2ccn(Cc3ccc(Cl)c(Cl)c3)c(=O)c2cc1OC` here?
**A.** 26.6%

**Q.** What does the source list for `O=c1c2ccc(O)cc2ccn1Cc1ccccc1`?
**A.** EC50 [1]: 3.16 µM; Rmax [1]: 74.2%; Activity [2]: 64.3%

**Q.** Which EC50 [1] does the source give for `COc1cc(OC)c2c(=O)n(Cc3ccc(OC)c(OC)c3)ccc2c1` here?
**A.** 1 µM

**Q.** And the Rmax [1]?
**A.** 76.4%

**Q.** What about the Activity [2] of the same compound?
**A.** 66.8%

**Q.** Which results are given for `COc1cc(OC)c2c(=O)n(Cc3ccc(OCc4ccc(F)cc4)c(OC)c3)ccc2c1`?
**A.** EC50 [1]: 0.501 µM; Rmax [1]: 75.3%; Activity [2]: 74.1%

**Q.** With `COC(=O)c1cccc(Cn2ccc3cc(OC)c(OC)cc3c2=O)c1` as the compound, how does the Activity [2] read?
**A.** 37.6%

**Q.** What does the source list for `COc1cc(O)c2c(=O)n(Cc3ccc(OC)c(OC)c3)ccc2c1`?
**A.** EC50 [1]: 0.501 µM; Rmax [1]: 91.6%; Activity [2]: 81.3%

**Q.** What does the source list for `COc1ccc2c(=O)n(Cc3ccc(OC)c(OC)c3)ccc2c1`?
**A.** EC50 [1]: 3.16 µM; Rmax [1]: 84.7%; Activity [2]: 59%

**Q.** What does the source list for `COc1cc2ccn(Cc3cc(OC)c(OC)c(OC)c3)c(=O)c2cc1OC`?
**A.** EC50 [1]: 15.8 µM; Rmax [1]: 73.1%; Activity [2]: 48.4%

**Q.** Which EC50 [1] does the source give for `CCOC(=O)C1=C(C)NC(C)=C(C(=O)OC)C1c1cccc([N+](=O)[O-])c1` (stereo not given) [NITRENDIPINE] here?
**A.** 0.000316 µM

**Q.** And the Rmax [1]?
**A.** 99.8%

**Q.** And the Activity [2]?
**A.** 99.9%

**Q.** What about the Activity (Rattus norvegicus [5]) of the same compound?
**A.** 9 mmHg

**Q.** And the Activity (Rattus norvegicus [9])?
**A.** 5 mmHg

**Q.** For `COC(=O)c1cccc(Cn2ccc3cc4c(cc3c2=O)OCO4)c1`, which EC50 [1] is on record?
**A.** 3.98 µM

**Q.** What about the Rmax [1] of the same compound?
**A.** 51.4%

**Q.** What about the Activity [2] of the same compound?
**A.** 50.6%

**Q.** With `COc1ccc2c(=O)n(Cc3cc(OC)c(OC)c(OC)c3)ccc2c1` as the compound, how does the EC50 [1] read?
**A.** 2 µM

**Q.** And the Rmax [1]?
**A.** 84%

**Q.** What about the Activity [2] of the same compound?
**A.** 72%

**Q.** For `COc1cc2ccn(Cc3cccc(N)c3)c(=O)c2cc1OC`, which EC50 [1] is on record?
**A.** 5.01 µM

**Q.** And the Rmax [1]?
**A.** 52.3%

**Q.** And the Activity [2]?
**A.** 51%

**Q.** With `COc1ccc(Cn2ccc3cccc(OC)c3c2=O)cc1` as the compound, how does the EC50 [1] read?
**A.** 0.2 µM

**Q.** And the Rmax [1]?
**A.** 106%

**Q.** What about the Activity [2] of the same compound?
**A.** 96.3%

**Q.** And the inhibition [3]?
**A.** Active

**Q.** What about the EC50 [14] of the same compound?
**A.** 0.02 µM

**Q.** What about the Emax [14] of the same compound?
**A.** 95.4%

**Q.** And the EC50 [15]?
**A.** 0.126 µM

**Q.** What about the Emax [15] of the same compound?
**A.** 99.9%

**Q.** What about the EC50 [16] of the same compound?
**A.** 0.631 µM

**Q.** And the Emax [16]?
**A.** 122%

**Q.** And the EC50 [17]?
**A.** 0.398 µM

**Q.** And the Emax [17]?
**A.** 103%

**Q.** And the EC50 [18]?
**A.** 2 µM

**Q.** And the Emax [18]?
**A.** 107%

**Q.** What about the Activity (Rattus norvegicus [4]) of the same compound?
**A.** 6 mmHg

**Q.** What about the Activity (Rattus norvegicus [5]) of the same compound?
**A.** 14 mmHg

**Q.** And the Activity (Rattus norvegicus [6])?
**A.** 38 mmHg

**Q.** What about the Activity (Rattus norvegicus [7]) of the same compound?
**A.** 46 mmHg

**Q.** What about the Activity (Rattus norvegicus [8]) of the same compound?
**A.** 10 mmHg

**Q.** What about the Activity (Rattus norvegicus [9]) of the same compound?
**A.** 16 mmHg

**Q.** And the Activity (Rattus norvegicus [10])?
**A.** 44 mmHg

**Q.** What about the Activity (Rattus norvegicus [11]) of the same compound?
**A.** 53 mmHg

**Q.** What about the Activity (Rattus norvegicus [19]) of the same compound?
**A.** 4 mmHg

**Q.** What about the Activity (Rattus norvegicus [20]) of the same compound?
**A.** 7 mmHg

**Q.** And the Activity (Rattus norvegicus [21])?
**A.** 6 mmHg

**Q.** And the Activity (Rattus norvegicus [22])?
**A.** 0 mmHg

**Q.** And the Activity (Rattus norvegicus [23])?
**A.** 8 mmHg

**Q.** What about the Activity (Rattus norvegicus [24]) of the same compound?
**A.** 10 mmHg

**Q.** And the inhibition (Rattus norvegicus [12])?
**A.** Dose-dependent effect

**Q.** What about the inhibition (Rattus norvegicus [13]) of the same compound?
**A.** Dose-dependent effect

**Q.** For `COc1cc(OC)c2c(=O)n(Cc3cc(OC)c(OC)c(OC)c3)ccc2c1`, which EC50 [1] is on record?
**A.** 6.31 µM

**Q.** What about the Rmax [1] of the same compound?
**A.** 89.5%

**Q.** What about the Activity [2] of the same compound?
**A.** 53.1%

**Q.** What does the source list for `COc1cccc2ccn(Cc3ccccc3)c(=O)c12`?
**A.** EC50 [1]: 2.51 µM; Rmax [1]: 71.3%; Activity [2]: 63.2%

**Q.** Which Activity [2] does the source give for `COc1cc2ccn(Cc3ccccc3)c(=O)c2cc1OC` here?
**A.** 42.3%

**Q.** Which results are given for `COc1cc2ccn(Cc3cccc(F)c3)c(=O)c2cc1OC`?
**A.** EC50 [1]: 3.98 µM; Rmax [1]: 54.2%; Activity [2]: 54%

**Q.** With `COc1cc2ccn(Cc3cccc([N+](=O)[O-])c3)c(=O)c2cc1OC` as the compound, how does the EC50 [1] read?
**A.** 2 µM

**Q.** What about the Rmax [1] of the same compound?
**A.** 67.4%

**Q.** What about the Activity [2] of the same compound?
**A.** 57.4%

**Q.** Which EC50 [1] does the source give for `COc1ccc2c(=O)n(Cc3ccccc3)ccc2c1` here?
**A.** 2 µM

**Q.** And the Rmax [1]?
**A.** 61.8%

**Q.** And the Activity [2]?
**A.** 60.1%
